Legend:
[1] = biological target: T1, aldose reductase (Bos taurus, UniProt P16116); test: Aldose reductase inhibitory activity; type: biochemical, calf lens (partially purified enzyme); conditions: partially purified aldose reductase from calf lens; read-out: 50% Inhibitory Concentration
T1 construct: partially purified aldose reductase enzyme obtained from calf lens; from tissue; host or cells: calf lens
Method: The derivatives prepared in Examples 1-6 were tested for their ability to reduce or inhibit aldose reductase enzyme activity, following the procedure described in U.S. Pat. No. 3,821,383 and based on the procedure of Hayman et. al., Journal of Biological Chemistry, 240, 877 (1965). The substrate employed was partially purified aldose reductase enzyme obtained from calf lens. The drug was tested to determine the concentration that would cause 50 percent inhibition of enzyme activity.

[2] = system: sorbitol accumulation in the sciatic nerve; test: Inhibition of sorbitol accumulation in the sciatic nerve of streptozotocinized (diabetic) rats; type: in vivo; conditions: oral at 4, 8 and 24 h after streptozotocin, rat sciatic nerve, 27 h after induction of diabetes
Method: Some of the Examples of derivatives prepared above were also tested for their ability to reduce or inhibit sorbitol accumulation in the sciatic nerve of streptozotocinized (i.e., diabetic) rats essentially by the procedure described in U.S. Pat. No. 3,821,383. In the present study, the amount of sorbitol accumulation in the sciatic nerves was measured 27 hours after induction of diabetes. The compounds were administered orally at the dose level indicated at 4, 8 and 24 hours following the administration of streptozotocin. The results obtained in this manner are presented in terms of percent inhibition (%) afforded by the test compound compared to the control where no compound was administered (i.e., the untreated animal where sorbitol levels normally rise from approximately […] tissue to as high as […] tissue in the 27-hour test period).

IC50 [1] | Compound | % Inhibition (sorbitol accumulation) ([2]; 25 mg./kg. t.i.d.) | % Inhibition (sorbitol accumulation) ([2]; 1.5 mg./kg. t.i.d.) | % Inhibition (sorbitol accumulation) ([2]; 10 mg./kg. t.i.d.)
> 100 µM | O=C1NC(=O)C2(N1)c1ccccc1CCC2c1ccccc1 (stereo not shown) [Example 1, 1',2',3',4'-tetrahydro-3'-phenyl-spiro[imidazolidine-4,4'-naphthalene]-2,5-dione] | 18% | – | –
100 µM | O=C1NC(=O)C2(CCC(c3ccccc3)c3ccccc32)N1 (stereo not shown) [Example 2, 1',2',3',4'-tetrahydro-1'-phenyl-spiro[imidazolidine-4,4'-naphthalene]-2,5-dione] | 27% | – | –
– | O=C1NC(=O)C2(CCOc3ccc(-c4ccccc4)cc32)N1 (stereo not shown) [Example 3, 6'-phenyl-spiro[imidazolidine-4,4'-chroman]-2,5-dione] | – | 0% | –
1 µM | O=C1NC(=O)C2(CCOc3c(-c4ccccc4)cccc32)N1 (stereo not shown) [Example 4, 8'-phenyl-spiro[imidazolidine-4,4'-chroman]-2,5-dione] | – | – | 54%
10 µM | O=C1NC(=O)C2(CCOc3ccc(Oc4ccccc4)cc32)N1 (stereo not shown) [Example 5, 6'-phenoxy-spiro[imidazolidine-4,4'-chroman]-2,5-dione] | – | 0% | –
10 µM | O=C1NC(=O)C2(CCOc3c(Cl)cc(-c4ccccc4)cc32)N1 (stereo not shown) [Example 6, 8'-chloro-6'-phenyl-spiro[imidazolidine-4,4'-chroman]-2,5-dione] | – | – | –
